This experiment concerns red blood cell ghosts (plasma membrane). The experiment is described as follows: Membrane retention coefficient (MRC) in red blood cell ghosts. The experiment is classed as binding. The conditions noted are these: for Δ MRC: change in MRC to 24 hr. As for the experimental part: Determination of Membrane Retention Coefficient
The membrane retention coefficient (MRC) provides information regarding how well a given compound is retained in the plasma membrane of a cell and is determined as described below.
Generation of red blood cell ghosts for use as a model membrane is achieved by centrifuging whole blood at 300×g for 15 minutes, removal of the plasma and resuspension of the cell pellet in 0.83% (w/v) ammonium chloride. The ghosts are pelleted from the ammonium chloride by centrifuging at 10,000×g for 10 minutes. This ammonium chloride washing procedure is repeated a minimum of five times to insure that complete release of hemoglobin from the cells has occured. The ghosts are labeled with the compound in question at a concentration allowing for detection of the labeled ghosts by instrumental analysis or fluorescent microscopic methods, and at a concentration similar to those that would be used to label cells for a specific application as described above. For the determinations hereinbelow stock solutions of the compounds in question were prepared in ethanol at a molar concentration of 2×10^-3, and working dilutions of the compounds were prepared in iso-osmotic sucrose (52 g/500 ml distilled water). After incubation of the ghosts at an approximate concentration of 1×10^9 ghosts/ml in the working dilutions of the compounds for 10 minutes, the samples were centrifuged at 10,000×g to pellet the ghosts and the staining solution was aspirated from the samples. The labeled ghosts were resuspended in 1 ml of phosphate buffered saline solution containing 10% fetal bovine serum (PBS-FBS). Triplicate 20 ul aliquots were removed from each sample for the determination of the amount of total compound present. The samples were centrifuged as described above and triplicate 20 ul aliquots were removed from the supernatant for quantitative determination of amount of unbound compound present.
After sampling, the supernatant was aspirated and the red cell ghost pellet was resuspended in 1.0 ml of the PBS-FBS, which was once again sampled as described above. This procedure was repeated at least six times, allowing for detection of rapidly released compounds and was monitored after times equal to or greater than 24 hours to allow for the detection of more slowly released compounds. For the determination of the amount of compound present in each sample, the 20 ul aliquots were extracted into 3.0 ml of n-butanol by shaking. The samples were centrifuged at 3000×g to remove membrane debris and the butanol fractions were assayed for compound concentration. Fluorescent compounds are assayed in this manner using peak excitation and emission wave lengths for the particular compounds being assayed to determine the fluorescence units for each sample.
The determination of the amount of compound present in each sample as described above allows for the calculation of the MRC for each washing or fixed time point. The value is obtained by the following formula: […]
wherein CT represents the amount of compound present (in units determined by the method used to assay the compound) in the total sample and CS represents the amount of compound present in the supernatant sample for that particular time point. The comparison of the MRC values defines criteria for identification of the compounds of this invention, these criteria being: 1) the MRC values determined for each washing steps should have a value of at least about 90 and 2) the percent difference between MRC values over at least a 24 hour time period should be less than about 10%. [drawing 14]
The data provided in Table I below are the results from one experiment and serve as an example of the MRC determination. […]

Turning to `CCCCCCCCCCCCCCCCCCCCCCN1C(=CC=Cc2oc3ccccc3[n+]2CCC)Oc2ccccc21` [G], the “Membrane retention coefficient (MRC), 24 HR” value was 96.90; the “Δ MRC” value is recorded as 1.46%; the “Membrane retention coefficient (MRC), WASH 1” value came out at 94.42; the “Membrane retention coefficient (MRC), WASH 2” value is reported as 96.96. Also, the “Membrane retention coefficient (MRC), WASH 3” value is given as 98.03; the “Membrane retention coefficient (MRC), WASH 4” value came to 97.93; the “Membrane retention coefficient (MRC), WASH 5” value is listed as 97.92; the “Membrane retention coefficient (MRC), WASH 6” value is reported as 98.34.
`CCCCCCCCCCCCCCCCCCCCN1C(=CC=Cc2oc3ccccc3[n+]2CCC)Oc2ccccc21` [Compound H]: the “Membrane retention coefficient (MRC), 24 HR” value is reported as 90.10; the “Δ MRC” value turned out to be 8.43%; the “Membrane retention coefficient (MRC), WASH 1” value is recorded as 91.70; the “Membrane retention coefficient (MRC), WASH 2” value is reported as 97.22. In addition, the “Membrane retention coefficient (MRC), WASH 3” value turned out to be 97.97; the “Membrane retention coefficient (MRC), WASH 4” value came to 98.24; the “Membrane retention coefficient (MRC), WASH 5” value was determined as 98.09; the “Membrane retention coefficient (MRC), WASH 6” value came to 98.40.
For `CCCCCCCCCCCCCCCCCCCCCC[n+]1c2cc(N(C)C)ccc2cc2ccc(N(C)C)cc21` [L], the “Membrane retention coefficient (MRC), 24 HR” value is 96.82; the “Δ MRC” value was found to be 3.12%; the “Membrane retention coefficient (MRC), WASH 1” value is given as 97.90; the “Membrane retention coefficient (MRC), WASH 2” value worked out at 98.89. The “Membrane retention coefficient (MRC), WASH 3” value came out at 98.90; the “Membrane retention coefficient (MRC), WASH 4” value was determined as 99.18; the “Membrane retention coefficient (MRC), WASH 5” value came to 99.09; the “Membrane retention coefficient (MRC), WASH 6” value worked out at 99.22.
On to `CCCCCCCCCCCCCCCCCCN1C(=CC=Cc2oc3ccccc3[n+]2CCCCCCCC)Oc2ccccc21` [I], for which the “Membrane retention coefficient (MRC), 24 HR” value is reported as 97.65; the “Δ MRC” value came out at 2.08%; the “Membrane retention coefficient (MRC), WASH 1” value is on record as 94.69; the “Membrane retention coefficient (MRC), WASH 2” value is listed as 98.24. Also, the “Membrane retention coefficient (MRC), WASH 3” value was 98.32; the “Membrane retention coefficient (MRC), WASH 4” value was determined as 98.78; the “Membrane retention coefficient (MRC), WASH 5” value came to 98.96; the “Membrane retention coefficient (MRC), WASH 6” value is on record as 99.73.
For `CCCCCCCCCCCCCCCCCCCCCCN1C(=CC=Cc2oc3ccccc3[n+]2CCC)Oc2ccccc21` [K], the “Membrane retention coefficient (MRC), 24 HR” value was found to be 97.90; the “Δ MRC” value is listed as 1.56%; the “Membrane retention coefficient (MRC), WASH 1” value is given as 97.35; the “Membrane retention coefficient (MRC), WASH 2” value stood at 98.47. The “Membrane retention coefficient (MRC), WASH 3” value amounted to 98.16; the “Membrane retention coefficient (MRC), WASH 4” value is 98.99; the “Membrane retention coefficient (MRC), WASH 5” value was determined as 99.01; the “Membrane retention coefficient (MRC), WASH 6” value was 99.46.
Consider `CCCCCCCCCCCCCCCCCC[n+]1c2cc(N(C)C)ccc2cc2ccc(N(C)C)cc21` [M], for which the “Membrane retention coefficient (MRC), 24 HR” value stood at 42.88; the “Δ MRC” value worked out at 55.79%; the “Membrane retention coefficient (MRC), WASH 1” value worked out at 91.01; the “Membrane retention coefficient (MRC), WASH 2” value is 95.12. For the same compound, the “Membrane retention coefficient (MRC), WASH 3” value is recorded as 95.82; the “Membrane retention coefficient (MRC), WASH 4” value came out at 96.42; the “Membrane retention coefficient (MRC), WASH 5” value worked out at 96.27; the “Membrane retention coefficient (MRC), WASH 6” value worked out at 97.01.
In the case of `CCCCCCCCCCN1C(=CC=CC2=[N+](CCCCCCCCCC)c3ccccc3C2(C)C)C(C)(C)c2ccccc21` [B], the “Membrane retention coefficient (MRC), 24 HR” value was 54.08; the “Δ MRC” value is given as 42.95%; the “Membrane retention coefficient (MRC), WASH 1” value is listed as 83.28; the “Membrane retention coefficient (MRC), WASH 2” value was 92.36. For the same compound, the “Membrane retention coefficient (MRC), WASH 3” value stood at 94.63; the “Membrane retention coefficient (MRC), WASH 4” value came to 94.94; the “Membrane retention coefficient (MRC), WASH 5” value was 95.33; the “Membrane retention coefficient (MRC), WASH 6” value amounted to 94.80.
As for `CCCCCCCCCCCCCCCCCCCCCCCCCC[n+]1c2cc(N(C)C)ccc2cc2ccc(N(C)C)cc21` [N], the “Membrane retention coefficient (MRC), 24 HR” value is on record as 98.27; the “Δ MRC” value came out at 0.61%; the “Membrane retention coefficient (MRC), WASH 1” value was 95.97; the “Membrane retention coefficient (MRC), WASH 2” value came out at 97.51. Also, the “Membrane retention coefficient (MRC), WASH 3” value was 98.32; the “Membrane retention coefficient (MRC), WASH 4” value is on record as 98.48; the “Membrane retention coefficient (MRC), WASH 5” value was 98.71; the “Membrane retention coefficient (MRC), WASH 6” value is reported as 98.88.
Consider `CCCCCCCCCCCCCCN1C(=CC=CC2=[N+](CCCCCCCCCCCCCC)c3ccccc3C2(C)C)C(C)(C)c2ccccc21` [C], for which the “Membrane retention coefficient (MRC), 24 HR” value was 93.90; the “Δ MRC” value turned out to be 5.26%; the “Membrane retention coefficient (MRC), WASH 1” value stood at 94.85; the “Membrane retention coefficient (MRC), WASH 2” value turned out to be 97.24. In addition, the “Membrane retention coefficient (MRC), WASH 3” value was found to be 98.40; the “Membrane retention coefficient (MRC), WASH 4” value is 98.64; the “Membrane retention coefficient (MRC), WASH 5” value is listed as 98.43; the “Membrane retention coefficient (MRC), WASH 6” value amounted to 99.12.
With `CCCCCCCCCCCCCCCCCCN1C(=CC=Cc2oc3ccccc3[n+]2CCC)Oc2ccccc21` [E], the “Membrane retention coefficient (MRC), 24 HR” value worked out at 53.81; the “Δ MRC” value is reported as 44.62%; the “Membrane retention coefficient (MRC), WASH 1” value amounted to 90.69; the “Membrane retention coefficient (MRC), WASH 2” value is 94.74. Besides, the “Membrane retention coefficient (MRC), WASH 3” value came to 96.28; the “Membrane retention coefficient (MRC), WASH 4” value is on record as 96.74; the “Membrane retention coefficient (MRC), WASH 5” value was found to be 96.41; the “Membrane retention coefficient (MRC), WASH 6” value is 97.17.
For `CCC[n+]1c(C=CC=C2Oc3ccccc3N2CCC(C)CCCC(C)CCCC(C)CCCC(C)C)oc2ccccc21` (stereo not shown) [F], the “Membrane retention coefficient (MRC), 24 HR” value is given as 36.77; the “Δ MRC” value is recorded as 61.64%; the “Membrane retention coefficient (MRC), WASH 1” value was found to be 88.82; the “Membrane retention coefficient (MRC), WASH 2” value was determined as 93.94. For the same compound, the “Membrane retention coefficient (MRC), WASH 3” value turned out to be 95.15; the “Membrane retention coefficient (MRC), WASH 4” value is reported as 95.26; the “Membrane retention coefficient (MRC), WASH 5” value amounted to 94.51; the “Membrane retention coefficient (MRC), WASH 6” value stood at 96.64.
For the compound `CCCCCN1C(=CC=CC2=[N+](CCCCC)c3ccccc3C2(C)C)C(C)(C)c2ccccc21` [A], the “Membrane retention coefficient (MRC), 24 HR” value is reported as 0.00; the “Δ MRC” value was determined as 100.00%; the “Membrane retention coefficient (MRC), WASH 1” value turned out to be 51.63; the “Membrane retention coefficient (MRC), WASH 2” value stood at 51.12. The “Membrane retention coefficient (MRC), WASH 3” value was 44.82; the “Membrane retention coefficient (MRC), WASH 4” value worked out at 41.39; the “Membrane retention coefficient (MRC), WASH 5” value was 12.59; the “Membrane retention coefficient (MRC), WASH 6” value came to 17.48.
In the case of `CCCCCCCCCCCCCCN1C(=CC=Cc2oc3ccccc3[n+]2CCC)Oc2ccccc21` [D], the “Membrane retention coefficient (MRC), 24 HR” value amounted to 18.84; the “Δ MRC” value is listed as 75.82%; the “Membrane retention coefficient (MRC), WASH 1” value stood at 50.40; the “Membrane retention coefficient (MRC), WASH 2” value was 61.20. The “Membrane retention coefficient (MRC), WASH 3” value came out at 64.45; the “Membrane retention coefficient (MRC), WASH 4” value came out at 65.85; the “Membrane retention coefficient (MRC), WASH 5” value came out at 70.62; the “Membrane retention coefficient (MRC), WASH 6” value is given as 77.92.
`CCCCCCCCCCCCCCCCCCN1C(=CC=Cc2oc3ccccc3[n+]2CCCCC)Oc2ccccc21` [J]: the “Membrane retention coefficient (MRC), 24 HR” value turned out to be 87.24; the “Δ MRC” value is 10.57%; the “Membrane retention coefficient (MRC), WASH 1” value is given as 94.07; the “Membrane retention coefficient (MRC), WASH 2” value was 96.99. Besides, the “Membrane retention coefficient (MRC), WASH 3” value was 98.66; the “Membrane retention coefficient (MRC), WASH 4” value worked out at 98.39; the “Membrane retention coefficient (MRC), WASH 5” value worked out at 98.82; the “Membrane retention coefficient (MRC), WASH 6” value was determined as 97.56.
